Data published in patent US12077503B2, “Substituted cyclic amides and their use as herbicides” (FMC CORPORATION, priority 2015, dated 2024).

Columns and labels:
Experiment in all cases: Test C preemergence
Format in all cases: in vivo
[1] = test system: blackgrass (Alopecurus myosuroides); conditions: for Plant response rating, Blackgrass: scale 0 to 100, 0 no effect, 100 complete control
In short: (§1)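 Scores of 0 to 100 reflect visual comparison with control plants, where 0 means no effect and 100 complete control, made 13 to 15 d after treatment. Application was preemergence to seeds in loam-sand soil or postemergence to plants 2 to 18 cm tall in peat-based mix, using a surfactant-containing solvent formulation.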

[2] = test system: ryegrass, Italian (Italian ryegrass, Lolium multiflorum); conditions: for Plant response rating, Ryegrass, Italian: scale 0 to 100, 0 no effect, 100 complete control
In short: as §1

[3] = test system: morningglory (Ipomoea coccinea); conditions: for Plant response rating, Morningglory: scale 0 to 100, 0 no effect, 100 complete control
In short: as §1

[4] = test system: lambsquarters (Chenopodium album); conditions: for Plant response rating, Lambsquarters: scale 0 to 100, 0 no effect, 100 complete control
In short: as §1

[5] = test system: Galium (catchweed bedstraw, Galium aparine); conditions: for Plant response rating, Galium: scale 0 to 100, 0 no effect, 100 complete control
In short: as §1

[6] = test system: waterhemp (common waterhemp, Amaranthus rudis); conditions: for Plant response rating, Waterhemp: scale 0 to 100, 0 no effect, 100 complete control
In short: as §1

corn (Zea mays) = conditions: for Plant response rating, Corn: scale 0 to 100, 0 no effect, 100 complete control
In short: as §1

[7] = test system: velvetleaf (Abutilon theophrasti); conditions: for Plant response rating, Velvetleaf: scale 0 to 100, 0 no effect, 100 complete control
In short: as §1

[8] = test system: pigweed (Amaranthus retroflexus); conditions: for Plant response rating, Pigweed: scale 0 to 100, 0 no effect, 100 complete control
In short: as §1

[9] = test system: foxtail, giant (giant foxtail, Setaria faberii); conditions: for Plant response rating, Foxtail, Giant: scale 0 to 100, 0 no effect, 100 complete control
In short: as §1

[10] = test system: johnsongrass (Sorghum halepense); conditions: for Plant response rating, Johnsongrass: scale 0 to 100, 0 no effect, 100 complete control
In short: as §1

[11] = test system: ragweed (common ragweed, Ambrosia elatior); conditions: for Plant response rating, Ragweed: scale 0 to 100, 0 no effect, 100 complete control
In short: as §1

[12] = test system: oilseed rape (Brassica napus); conditions: for Plant response rating, Oilseed Rape: scale 0 to 100, 0 no effect, 100 complete control
In short: as §1

[13] = test system: barnyardgrass (Echinochloa crus-galli); conditions: for Plant response rating, Barnyardgrass: scale 0 to 100, 0 no effect, 100 complete control
In short: as §1

[14] = test system: wheat (winter wheat, Triticum aestivum); conditions: for Plant response rating, Wheat: scale 0 to 100, 0 no effect, 100 complete control
In short: as §1

soybean (Glycine max) = conditions: for Plant response rating, Soybean: scale 0 to 100, 0 no effect, 100 complete control
In short: as §1

[15] = test system: crabgrass, large (large crabgrass, Digitaria sanguinalis); conditions: for Plant response rating, Crabgrass, Large: scale 0 to 100, 0 no effect, 100 complete control
In short: as §1

[16] = 31 g ai/ha, 0 is no effect, 100 is complete control

O=C1NCC(c2ccc(I)cc2)C1C(=O)Nc1cccc(F)c1F (racemic) [Compound 700]
Plant response rating (scale of 0 to 100), Blackgrass [1, 16]: 20
Plant response rating, Blackgrass ([1]; 62 g ai/ha): 55
Plant response rating, Blackgrass ([1]; 125 g ai/ha): 60
Plant response rating, Blackgrass ([1]; 250 g ai/ha): 85
Plant response rating (scale of 0 to 100), Ryegrass, Italian [2, 16]: 0
Plant response rating, Ryegrass, Italian ([2]; 62 g ai/ha): 20
Plant response rating, Ryegrass, Italian ([2]; 125 g ai/ha): 35
Plant response rating, Ryegrass, Italian ([2]; 250 g ai/ha): 45
Plant response rating (scale of 0 to 100), Morningglory [3, 16]: 0
Plant response rating, Morningglory ([3]; 62 g ai/ha): 0
Plant response rating, Morningglory ([3]; 125 g ai/ha): 0
Plant response rating, Morningglory ([3]; 250 g ai/ha): 0
Plant response rating (scale of 0 to 100), Lambsquarters [4, 16]: 0
Plant response rating, Lambsquarters ([4]; 62 g ai/ha): 25
Plant response rating, Lambsquarters ([4]; 125 g ai/ha): 80
Plant response rating, Lambsquarters ([4]; 250 g ai/ha): 85
Plant response rating (scale of 0 to 100), Galium [5, 16]: 0
Plant response rating, Galium ([5]; 62 g ai/ha): 0
Plant response rating, Galium ([5]; 125 g ai/ha): 50
Plant response rating, Galium ([5]; 250 g ai/ha): 40
Plant response rating (scale of 0 to 100), Waterhemp [6, 16]: 10
Plant response rating, Waterhemp ([6]; 62 g ai/ha): 65
Plant response rating, Waterhemp ([6]; 125 g ai/ha): 75
Plant response rating, Waterhemp ([6]; 250 g ai/ha): 70
Plant response rating (scale of 0 to 100), Corn (corn (Zea mays); [16]): 0
Plant response rating, Corn (corn (Zea mays); 62 g ai/ha): 0
Plant response rating, Corn (corn (Zea mays); 125 g ai/ha): 10
Plant response rating, Corn (corn (Zea mays); 250 g ai/ha): 50
Plant response rating (scale of 0 to 100), Velvetleaf [7, 16]: 0
Plant response rating, Velvetleaf ([7]; 62 g ai/ha): 0
Plant response rating, Velvetleaf ([7]; 125 g ai/ha): 20
Plant response rating, Velvetleaf ([7]; 250 g ai/ha): 40
Plant response rating (scale of 0 to 100), Pigweed [8, 16]: 0
Plant response rating, Pigweed ([8]; 62 g ai/ha): 15
Plant response rating, Pigweed ([8]; 125 g ai/ha): 50
Plant response rating, Pigweed ([8]; 250 g ai/ha): 65
Plant response rating (scale of 0 to 100), Foxtail, Giant [9, 16]: 80
Plant response rating, Foxtail, Giant ([9]; 62 g ai/ha): 85
Plant response rating, Foxtail, Giant ([9]; 125 g ai/ha): 90
Plant response rating, Foxtail, Giant ([9]; 250 g ai/ha): 90
Plant response rating (scale of 0 to 100), Johnsongrass [10, 16]: 100
Plant response rating, Johnsongrass ([10]; 62 g ai/ha): 0
Plant response rating, Johnsongrass ([10]; 125 g ai/ha): 10
Plant response rating, Johnsongrass ([10]; 250 g ai/ha): 60
Plant response rating (scale of 0 to 100), Ragweed [11, 16]: 10
Plant response rating, Ragweed ([11]; 62 g ai/ha): 50
Plant response rating, Ragweed ([11]; 125 g ai/ha): 75
Plant response rating, Ragweed ([11]; 250 g ai/ha): 75
Plant response rating (scale of 0 to 100), Oilseed Rape [12, 16]: 0
Plant response rating, Oilseed Rape ([12]; 62 g ai/ha): 30
Plant response rating, Oilseed Rape ([12]; 125 g ai/ha): 60
Plant response rating, Oilseed Rape ([12]; 250 g ai/ha): 50
Plant response rating (scale of 0 to 100), Barnyardgrass [13, 16]: 75
Plant response rating, Barnyardgrass ([13]; 62 g ai/ha): 85
Plant response rating, Barnyardgrass ([13]; 125 g ai/ha): 90
Plant response rating, Barnyardgrass ([13]; 250 g ai/ha): 95
Plant response rating (scale of 0 to 100), Wheat [14, 16]: 0
Plant response rating, Wheat ([14]; 62 g ai/ha): 0
Plant response rating, Wheat ([14]; 125 g ai/ha): 0
Plant response rating, Wheat ([14]; 250 g ai/ha): 70
Plant response rating (scale of 0 to 100), Soybean (soybean (Glycine max); [16]): 100
Plant response rating, Soybean (soybean (Glycine max); 62 g ai/ha): 0
Plant response rating, Soybean (soybean (Glycine max); 125 g ai/ha): 15
Plant response rating, Soybean (soybean (Glycine max); 250 g ai/ha): 0
Plant response rating (scale of 0 to 100), Crabgrass, Large [15, 16]: 95
Plant response rating, Crabgrass, Large ([15]; 62 g ai/ha): 95
Plant response rating, Crabgrass, Large ([15]; 125 g ai/ha): 95
Plant response rating, Crabgrass, Large ([15]; 250 g ai/ha): 98

O=C1NCC(c2cccc(OC(F)F)c2)C1C(=O)Nc1ccc(F)cc1F (centres unmarked) [Compound 421]
Plant response rating, Blackgrass ([1]; 31 g ai/ha): 40
Plant response rating, Blackgrass ([1]; 62 g ai/ha): 45
Plant response rating, Blackgrass ([1]; 125 g ai/ha): 70
Plant response rating, Blackgrass ([1]; 250 g ai/ha): 70
Plant response rating, Ryegrass, Italian ([2]; 62 g ai/ha): 40
Plant response rating, Ryegrass, Italian ([2]; 125 g ai/ha): 35
Plant response rating, Ryegrass, Italian ([2]; 250 g ai/ha): 65
Plant response rating, Morningglory ([3]; 31 g ai/ha): 0
Plant response rating, Morningglory ([3]; 62 g ai/ha): 0
Plant response rating, Morningglory ([3]; 125 g ai/ha): 15
Plant response rating, Morningglory ([3]; 250 g ai/ha): 20
Plant response rating, Lambsquarters ([4]; 31 g ai/ha): 10
Plant response rating, Lambsquarters ([4]; 62 g ai/ha): 35
Plant response rating, Lambsquarters ([4]; 125 g ai/ha): 60
Plant response rating, Lambsquarters ([4]; 250 g ai/ha): 70
Plant response rating, Galium ([5]; 31 g ai/ha): 0
Plant response rating, Galium ([5]; 62 g ai/ha): 0
Plant response rating, Galium ([5]; 125 g ai/ha): 55
Plant response rating, Galium ([5]; 250 g ai/ha): 45
Plant response rating, Waterhemp ([6]; 62 g ai/ha): 30
Plant response rating, Waterhemp ([6]; 125 g ai/ha): 80
Plant response rating, Waterhemp ([6]; 250 g ai/ha): 85
Plant response rating, Corn (corn (Zea mays); 31 g ai/ha): 0
Plant response rating, Corn (corn (Zea mays); 62 g ai/ha): 0
Plant response rating, Corn (corn (Zea mays); 125 g ai/ha): 60
Plant response rating, Corn (corn (Zea mays); 250 g ai/ha): 75
Plant response rating, Velvetleaf ([7]; 62 g ai/ha): 20
Plant response rating, Velvetleaf ([7]; 125 g ai/ha): 20
Plant response rating, Velvetleaf ([7]; 250 g ai/ha): 40
Plant response rating, Pigweed ([8]; 31 g ai/ha): 0
Plant response rating, Pigweed ([8]; 62 g ai/ha): 0
Plant response rating, Pigweed ([8]; 125 g ai/ha): 35
Plant response rating, Pigweed ([8]; 250 g ai/ha): 60
Plant response rating, Foxtail, Giant ([9]; 31 g ai/ha): 80
Plant response rating, Foxtail, Giant ([9]; 62 g ai/ha): 85
Plant response rating, Foxtail, Giant ([9]; 125 g ai/ha): 85
Plant response rating, Foxtail, Giant ([9]; 250 g ai/ha): 90
Plant response rating, Johnsongrass ([10]; 31 g ai/ha): 0
Plant response rating, Johnsongrass ([10]; 62 g ai/ha): 0
Plant response rating, Johnsongrass ([10]; 125 g ai/ha): 0
Plant response rating, Johnsongrass ([10]; 250 g ai/ha): 0
Plant response rating, Ragweed ([11]; 31 g ai/ha): 0
Plant response rating, Ragweed ([11]; 62 g ai/ha): 30
Plant response rating, Ragweed ([11]; 125 g ai/ha): 40
Plant response rating, Ragweed ([11]; 250 g ai/ha): 60
Plant response rating, Oilseed Rape ([12]; 31 g ai/ha): 10
Plant response rating, Oilseed Rape ([12]; 62 g ai/ha): 25
Plant response rating, Oilseed Rape ([12]; 125 g ai/ha): 30
Plant response rating, Oilseed Rape ([12]; 250 g ai/ha): 35
Plant response rating, Barnyardgrass ([13]; 31 g ai/ha): 60
Plant response rating, Barnyardgrass ([13]; 62 g ai/ha): 80
Plant response rating, Barnyardgrass ([13]; 125 g ai/ha): 90
Plant response rating, Barnyardgrass ([13]; 250 g ai/ha): 95
Plant response rating, Wheat ([14]; 62 g ai/ha): 0
Plant response rating, Wheat ([14]; 125 g ai/ha): 25
Plant response rating, Wheat ([14]; 250 g ai/ha): 40
Plant response rating, Soybean (soybean (Glycine max); 62 g ai/ha): 0
Plant response rating, Soybean (soybean (Glycine max); 125 g ai/ha): 0
Plant response rating, Soybean (soybean (Glycine max); 250 g ai/ha): 10
Plant response rating, Crabgrass, Large ([15]; 31 g ai/ha): 90
Plant response rating, Crabgrass, Large ([15]; 62 g ai/ha): 95
Plant response rating, Crabgrass, Large ([15]; 125 g ai/ha): 90
Plant response rating, Crabgrass, Large ([15]; 250 g ai/ha): 95
